The subject of data set [1] is Human colorectal cancer cell line HCT116. As to the kind of experiment: Test 1 of anti-proliferative activity against tumor cells (Cell-Titer Glo). The class given is cell-based. An outline of the steps:
(§1)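 HCT116, SKBR3 and OVCAR3 cells seeded 24 h, then treated with 9-point 3-fold dilutions (final 0-300 nM); HCT116 incubated 3 days, SKBR3 and OVCAR3 5 days at 37° C, 5% CO2. Viability by Cell-Titer Glo luminescence, inhibition normalised to DMSO and no-cell wells, IC50 fitted.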

Data set [2] relates to human ovarian cancer cell line OVCAR3. The description is as above. The class given is cell-based. An outline of the steps:
as §1

For data set [3], the system named is human breast cancer cell line SKBR3. Described as above. The class given is cell-based. An outline of the steps: as §1
Data set [4] in a line: Membrane permeability and transport characteristics (Caco-2 Transwell). The class given is in vitro ADME. Particulars: human, pH 7.4; for efflux ratio at 2 h, 10 μM: Caco-2, Papp (B-A)/Papp (A-B); for Papp A→B at 2 h, 10 μM: Caco-2, apical to basal; for Papp B→A at 2 h, 10 μM: Caco-2, basal to apical. As for the experimental part:
The membrane permeability and transport characteristics of the compounds of the present disclosure were determined by the following experimental method.
• 1. Caco-2 cells (ATCC) • 2. HEPES (Solarbio 804D049), penicillin/streptomycin (Solarbio 20200109) and PBS (Solarbio 20200620) • 3. Fetal bovine serum (FBS) (Sigma WXBD0055V), fluorescein (Sigma MKCJ3738) and NaHCO3 (Sigma SLBZ4647) • 4. Hank's balanced salt solution (HBSS) (Gibco 2085528), non-essential amino acid (NEAA) (Gibco 2211548) and Trypsin/EDTA (Gibco 2120732) • 5. High glucose DMEM (Corning 20319014) • 6. HTS Transwell-96 Well Permeable (Corning, 3391) • 7. Resistance tester (Millipore, Millicell® ERS-2) • 8. Cellometer® Vision (Nexcelom Bioscience) • 9. Infinite 200 PRO microplate reader (Tecan, Infinite M200PRO) • 10. Positive control compounds metoprolol (Sinopharm 100084-201403), erythromycin (MCE 84550) and cimetidine (Sinopharm 100158-201406) • 11. ABI QTrap 5500 liquid chromatography-mass spectrometry
• 1) Transport buffer (HBSS containing 25 mM HEPES, pH 7.4) was prepared: 5.958 g of HEPES and 0.35 g of NaHCO3 were accurately weighed, 900 mL of pure water was added to dissolve same, then 100 mL of 10×HBSS was added, uniform stirring was performed, the pH was adjust to 7.4, and filtering was performed. • 2) Caco-2 cell culture medium was prepared: FBS, penicillin/streptomycin, kanamycin and NEAA were added to high glucose DMEM (containing L-glutamine) medium to prepare a cell culture medium containing 10% FBS, 100 U/mL penicillin/0.1 mg/mL streptomycin, 0.6 μg/mL kanamycin and 1×NEAA. • 3) Cells were cultured in T-75 culture flasks in an incubator at 37° C. and 5% CO2, and the medium was discarded when the cell growth density reached 80-90%. The cells were rinsed with 5 mL of PBS, 1.5 mL of Trypsin/EDTA was added, then the cells were incubated in an incubator at 37° C. for 5-10 min until the cells fell off in the form of quicksand, and finally Trypsin/EDTA was neutralized with an FBS-containing medium. 4) The cell suspension was centrifuged at 120 g for 10 min, and the supernatant was discarded. • 5) The cell culture medium was added to re-suspend the cells to obtain a cell suspension with a density of […] cells/mL.
• 1) 50 μL of medium was added to each well of Transwell chamber, and 25 mL of medium was added to the lower layer. The Transwell chamber was preheated in an incubator at 37° C. and 5% CO2 for 1 h. • 2) 50 μL of the cell suspension was added to each well of the preheated Transwell chamber to a final seeding density of 2.4×10^5 cells/cm. • 3) The cells were cultured for 14-18 days, the medium was changed every other day, and the medium was changed within 48 h after the initial seeding in the plate. The medium must be changed one day before the experiment.
• 1) After 14 days of cell culture, the cells were fused and differentiated, ready for transport experiment. • 2) The resistance of monolayer cell membrane was measured by the resistance tester, and the resistance of each well was recorded. • 3) After the measurement was completed, the Transwell culture plate was re-incubated. • 4) The TEER value was calculated: […]
(In general: Caco-2 cells form a polarised layer with tight junctions and transporters.)

Where [5] appears, read: Homo sapiens, HCT-116, 72 h, read-out: HCT116 Anti-proliferative activity IC50 (nM), HCT116 cells, cultured 3 days with compound, Cell-Titer Glo.
Setting [6] is: Homo sapiens, OVCAR-3, 120 h, OVCAR3 cells, cultured 5 days with compound, Cell-Titer Glo, read-out: OVCAR3 Anti-proliferative activity IC50.
Where [7] appears, read: Homo sapiens, SK-BR-3, 120 h, read-out: SKBR3 Anti-proliferative activity IC50 (nM), SKBR3 cells, cultured 5 days with compound, Cell-Titer Glo.
The mark [8] stands for this setting: Homo sapiens, HCT-116, 72 h, HCT116 cells, cultured 3 days with compound, Cell-Titer Glo, read-out: HCT116 Anti-proliferative activity IC50.
[9] abbreviates: Homo sapiens, SK-BR-3, 120 h, SKBR3 cells, cultured 5 days with compound, Cell-Titer Glo, read-out: SKBR3 Anti-proliferative activity IC50.

Like-named read-outs stand apart in the source and are kept apart here.

As to `CC[C@@]1(O)C(=O)OCc2c1cc1n(c2=O)Cc2c-1nc1cc3c(cc1c2CNC(=O)C(O)C1CC1)OCO3` (single isomer, unassigned) [Compound 14-P1], the IC50 in data set [1] (setting [5]) amounted to 9.8 nM; in data set [2] (setting [6]), 0.6 nM; in data set [3] (setting [7]), 2.1 nM.
For the molecule `CC[C@@]1(O)C(=O)OCc2c1cc1n(c2=O)Cc2c-1nc1cc3c(cc1c2CNC(=O)C(O)C1CC1)OCO3` (single isomer, unassigned) [Compound 14-P2], the half-maximal inhibitory concentration (IC50) in data set [1] (read-out: HCT116 Anti-proliferative activity IC50, HCT116 cells, cultured 3 days with compound, Cell-Titer Glo) came to 12.4 nM; in data set [2] (OVCAR3 cells, cultured 5 days with compound, Cell-Titer Glo, read-out: OVCAR3 Anti-proliferative activity IC50), 1 nM; in data set [3] (read-out: SKBR3 Anti-proliferative activity IC50, SKBR3 cells, cultured 5 days with compound, Cell-Titer Glo) it was 3.5 nM.
As for `CC[C@@]1(O)C(=O)OCc2c1cc1n(c2=O)Cc2c-1nc1cc3c(c(F)c1c2CNC(=O)[C@@H](O)C1CC1)OCO3` (single isomer, unassigned) [Compound 37-P1], the IC50 amounted to 4.8 nM in data set [1] (setting [8]), 0.5 nM in data set [2] (setting [6]) and 2.1 nM in data set [3] (setting [9]).
In the case of `CC[C@@]1(O)C(=O)OCc2c1cc1n(c2=O)Cc2c-1nc1cc3c(cc1c2CNC(=O)C(O)C1CC1)OCO3` (stereo partly drawn) [Compound 14, 2-cyclopropyl-N-(((S)-7-ethyl-7-hydroxy-8,11-dioxo-7,8,11,13-tetrahydro-10H-[1,3]dioxolo[4,5-g]pyrano[3′,4′:6,7]indolizino[1,2-b]quinolin-14-yl)methyl)-2-hydroxyacetamide], in data set [4], the efflux ratio at 2 h, 10 μM was 15.2; the apical-to-basolateral permeability (Papp A→B) at 2 h, 10 μM came out at 0.26 ×10⁻⁶ cm/s; the Papp B→A at 2 h, 10 μM stood at 3.95 ×10⁻⁶ cm/s. The IC50 in data set [1] (setting [5]) worked out at 8.4 nM. Besides, the half-inhibitory concentration (IC50) in data set [2] (Homo sapiens, OVCAR-3, 120 h, read-out: OVCAR3 Anti-proliferative activity IC50 (nM)) was found to be 0.9 nM. The 50% inhibitory concentration (IC50) in data set [3] (setting [7]) stood at 2.2 nM.
For the molecule `[2H]C1([2H])Oc2cc3nc4c(c(CNC(=O)C(O)C5CC5)c3cc2O1)Cn1c-4cc2c(c1=O)COC(=O)[C@]2(O)CC` (stereo partly drawn) [Compound 39, 2-cyclopropyl-N-(((S)-7-ethyl-7-hydroxy-8,11-dioxo-7,8,11,13-tetrahydro-10H-[1,3]dioxolo[4,5-g]pyrano[3′,4′:6,7]indolizino[1,2-b]quinolin-14-yl-2,2-d2)methyl)-2-hydroxyacetamide], in data set [4], the efflux ratio at 2 h, 10 μM was 5.9; the Papp A→B at 2 h, 10 μM was 0.71 ×10⁻⁶ cm/s; the Papp B→A at 2 h, 10 μM worked out at 4.21 ×10⁻⁶ cm/s. Besides, the 50% inhibitory concentration (IC50) in data set [1] (setting [8]) was 9.5 nM. Besides, in data set [2] (setting [6]), the half-inhibitory concentration (IC50) amounted to 1 nM. Also, the IC50 in data set [3] (setting [9]) worked out at 2.9 nM.

Broadly, the IC50 is the concentration that gives 50% inhibition. One may read the efflux ratio as a quotient of directional permeabilities that is used to spot active efflux. As usually defined, the Papp A→B is the apparent permeability from the apical to the basolateral side of a cell layer. A low value points to slow passage. The term Papp B→A denotes the apparent permeability from the basolateral to the apical side of a cell layer.

The values are drawn from patent US20250270227A1, “CAMPTOTHECIN DERIVATIVE, AND PHARMACEUTICAL COMPOSITION AND USE THEREOF” (SIMCERE ZAIMING PHARMACEUTICAL CO., LTD., priority 2021, published 2025).
